The target of assay [1] is T1, purified porcine DP IV (Sus scrofa, UniProt P22411). As to the kind of experiment: Determination of IC50-values, Gly-Pro-pNA cleavage by DP IV. Particulars: Gly-Pro-pNA 0.4 mM, HEPES pH 7.6, 30° C.; read-out: IC50. The assay is classed as biochemical. The method, then: (§1) 100 μl inhibitor stock solution were mixed with 100 μl buffer (HEPES pH 7.6) and 50 μl substrate (Gly-Pro-pNA, final concentration 0.4 mM) and preincubated at 30° C. Reaction was started by addition of 20 μl purified porcine DP IV. Formation of the product pNA was measured at 405 nm over 10 min using the HTS 7000 Plus plate reader (Perkin Elmer) and slopes were calculated. The final inhibitor concentrations ranged between 1 mM and 30 nM.
T1 sequence (P22411 whole entry): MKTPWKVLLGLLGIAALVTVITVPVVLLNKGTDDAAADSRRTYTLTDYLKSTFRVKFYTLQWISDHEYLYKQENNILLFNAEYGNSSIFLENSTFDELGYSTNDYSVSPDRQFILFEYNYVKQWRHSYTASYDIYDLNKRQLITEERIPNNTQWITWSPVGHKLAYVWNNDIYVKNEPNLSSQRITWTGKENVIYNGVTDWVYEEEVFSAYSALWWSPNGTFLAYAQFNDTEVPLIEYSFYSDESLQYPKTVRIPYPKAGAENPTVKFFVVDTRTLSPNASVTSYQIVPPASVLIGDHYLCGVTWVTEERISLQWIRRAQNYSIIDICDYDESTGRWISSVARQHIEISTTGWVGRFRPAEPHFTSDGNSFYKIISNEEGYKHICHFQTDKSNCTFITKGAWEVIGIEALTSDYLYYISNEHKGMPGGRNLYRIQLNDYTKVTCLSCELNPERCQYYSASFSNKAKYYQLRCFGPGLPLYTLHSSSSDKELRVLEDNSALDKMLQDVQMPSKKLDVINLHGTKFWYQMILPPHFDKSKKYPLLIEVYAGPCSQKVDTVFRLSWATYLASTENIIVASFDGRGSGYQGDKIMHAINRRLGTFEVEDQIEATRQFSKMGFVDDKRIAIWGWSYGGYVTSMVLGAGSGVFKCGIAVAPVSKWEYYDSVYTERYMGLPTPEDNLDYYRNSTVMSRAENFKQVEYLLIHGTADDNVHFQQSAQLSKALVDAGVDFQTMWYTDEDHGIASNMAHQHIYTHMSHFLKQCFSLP
For calculation of IC50-values GraFit 4.0.13 (Erithacus Software) was used.

Assay [2] deals with T1, purified porcine DP IV. Briefly: Determination of Ki-values, Gly-Pro-pNA cleavage by DP IV. The assay is classed as biochemical. The note with it: Gly-Pro-pNA 0.05-0.4 mM. As for the experimental part: as §1
Calculations were performed using the GraFit Software.

Assay [3] relates to diabetic Zucker rats (fa/fa). Briefly: Oral glucose tolerance test (OGTT) in diabetic Zucker rats. The assay is classed as in vivo. The note with it: 100 mg/kg b.w. p.o. As for the experimental part: N=30 male Zucker rats (fa/fa), mean age 11 weeks (5-12 weeks), mean body weight 350 g (150-400 g), were purchased from Charles River (Sulzfeld, Germany). They were kept for >12 weeks until all the fatty Zucker rats had the characteristics of manifest Diabetes mellitus.
After overnight fasting, the fatty Zucker rats were given placebo, positive control and test substance, respectively, via feeding tube orally (15 G, 75 mm; Fine Science Tools, Heidelberg, Germany) at −10 min. An oral glucose tolerance test (OGTT) with 2 g/kg b.w. glucose as a 40% solution (B. Braun Melsungen, Melsungen, Germany) was implemented at ±0 min. The glucose was administered via a second feeding tube. Arterial blood samples from the carotid catheter were collected at −30 min, −15 min, ±0 min and at 5, 10, 15, 20, 30, 40, 60, 90 and 120 min into 20 μl glass capillaries, which were placed in standard tubes filled with 1 ml solution for hemolysis (blood glucose measurement).
Blood glucose: Glucose levels were measured using the glucose oxidase procedure (Super G Glukosemeβgerät; Dr. Müller Gerätebau, Freital, Germany).

Square brackets hold non-standard residues; d marks the D form. Peptide text beside a SMILES is read from it. Tle = CC(C)(C)[C@H](N)C(=O)O

The source of these data is patent US20030135023A1, “Peptide structures useful for competitive modulation of dipeptidyl peptidase IV catalysis” (priority 2001, published 2003).

For the compound `CC[C@H](C)[C@H](NC(=O)[C@@H]1CCCN1C(=O)[C@@H](N)C(C)(C)C)C(=O)O` [t-butyl-Gly-Pro-Ile] (H-[Tle]-Pro-Ile-OH; N-terminus and C-terminus assumed), in assay [1], the IC50 was 9.34 µM. Further, the Ki in assay [2] was 3.1 µM. In assay [3] (AUC test compound vs AUC Control), the “Improvement of glucose tolerance” value was 14.8%. The “AUC test compound (glucose, OGTT)” value in assay [3] (OGTT 2 g/kg glucose) amounted to 653.2 mmol·min/L.
